# Measured values as given in patent US5571799A, “(2'-5') oligoadenylate analogues useful as inhibitors of host-v5.-graft response” (Basco, Ltd., priority 1994, dated 1996).
# Columns and labels:
# [1] = tested on: IgG, IgA, IgM; assay: Immunoglobulins in monkeys after kidney transplantation; format: in vivo, Macaque Rh. monkeys; conditions: 50 μg/kg IV; for IgA: 2 days pre-op. 0.4; for IgM: 2 days pre-op. 0.8; for IgG: 2 days pre-op. 13
# Protocol: Serum levels of IgG, IgA, IgM were determined by radial immunodiffusion using antisera against human immunoglobulin A, M, G. The amount of interferon and interleukine-II were determined by the method of Lopez-Botet M. et al., 1982.
# (§1) The experiments were performed on 4 year-old Macaque Rh. monkeys. Each cohort consisted of 3 animals. […] The results of the experiments were evaluated clinically: by the presence or absence of urination from the ureterocutaneostoma.
# (§2) During our experiments we have divided monkeys into two groups, three monkeys to each group. For the first group (2'-5')A2 Ar-epoxy was administered intravenously at concentration of 50 μg/kg two days before the operation and at the second, sixth, and twelfth day after the operation and then every sixth day. […] After transplantation kidney functions were restored within 10 hours.
# [2] = tested on: T-lymphocytes (murine splenocytes) stimulated with Concanavalin A; assay: In vitro blast-transformation of murine lymphocytes, Con A (T-lymphocyte mitogen), [3H]-thymidine; format: cell-based, mouse (CBA); conditions: for DNA synthesis at [^3 H]-thymidine [incorporated counts/min.]: Con A 5 μg/ml
# Excerpt: (§3) The immune reactions in an organism begins with the division of lymphocytes. In vitro investigation of the lymphocyte blast-transformationreaction under the influence of mitogens makes it possible to use this model system to select chemically synthesized 2'-5'A3 analogues which suppress division of lymphocytes. Using Concanavalin A and lipopolysaccharide as mitogens, the effect of analogues on the division of T- and β-lymphocytes may be investigated.
# CBA mice 8-10 weeks old were used for these experiments. A suspension of mouse splenocytes were obtained by gently teasing spleens with forceps. […] Cultures were maintained in 5% CO2 at 37° C. One μCi of ^3 H-thymidine (Isotop®) was added to each well 4 hours before the end of the incubation period. Incorporation of ^3 H-thymidine into cellular DNA was determined by liquid scintillation counting using standard techniques. Oligoadenylate was added to the medium at the beginning of culturing to achieve the final concentration.
# (§4) (Con A being a mitogen for T-lymphocytes and LPS being a mitogen for β-lymphocytes).
# [3] = tested on: β-lymphocytes (murine splenocytes) stimulated with lipopolysaccharide; assay: In vitro blast-transformation of murine lymphocytes, LPS (β-lymphocyte mitogen), [3H]-thymidine; format: cell-based, mouse (CBA); conditions: for DNA synthesis at [^3 H]-thymidine [incorporated counts/min.]: LPS 0.1 μg/ml
# Excerpt: as §3
# CBA mice 8-10 weeks old were used for these experiments. A suspension of mouse splenocytes were obtained by gently teasing spleens with forceps. Lymphocytes cultivated in flat-bottomed 96-well plates (Linbro) in RPMI-1640 medium (Flow Lab.) were supplemented with 2 mM 1-glutamine, 10 μg/ml gentamicin, 10^-5 M 2-mercaptoethanol and 10% heat inactivated fetal calf serum (Flow Lab). Cultures were maintained in 5% CO2 at 37° C. One μCi of ^3 H-thymidine (Isotop®) was added to each well 4 hours before the end of the incubation period. Incorporation of ^3 H-thymidine into cellular DNA was determined by liquid scintillation counting using standard techniques. Oligoadenylate was added to the medium at the beginning of culturing to achieve the final concentration.
# as §4
# [4] = tested on: T-helper and T-killer cells; assay: T-helper and T-killer cells in monkeys after kidney transplantation; format: in vivo, Macaque Rh. monkeys; conditions: 50 μg/kg IV every 48 hours; first two post-surgical weeks
# Protocol: as §1, §2
# The administration schedule of (2'-5')A2 Ar-epoxy was modified slightly for the second group of monkeys. The preparation was injected two days before the operation and every other day at a concentration of 50 μg/kg during the entire post-transplantation period. […] The number of T-helpers dropped correspondingly from 37% to 7%. […] During the entire postoperative period, this activity tendency continues.
# [5] = tested on: T-helpers; assay: Immune system of monkeys: T-helpers, flow cytofluorografic analysis; format: in vivo, Macaque Rh. monkeys
# Protocol: The experiments were performed on 4 year-old Macaque Rh. monkeys. The levels of the principal subpopulations of T-lymphocytes, IgA, IgG, IgM and the amount of α- and γ-interferon and interleukin II after administration (2'-5')olygoadenylate and its analogies at the concentration of 50 and 25 μg/kg of the body weight was investigated.
# FLOW CYTOFLUOROGRAFIC ANALYSIS OF LYMPHOCYTE SUBSETS
# Blood samples (100 μl of whole blood) were placed into a 12×17 tube. To these cells 20 μl of purified monoclonal antibodies were added with specificity for human cytotoxic/suppressor cells anti-Leu-2a (CD8), human helper/inducer anti-Leu-3a (CD4) and FITC conjugated monoclonal antibodies with specificity for natural killer cells-anti-Leu11c (CD16) (Becton Dickinson, San Jose). After 30 minutes incubation on ice, the cells were washed once and 20 μl of goat-antimouse chain phycoerythrin (Sigma P1286) conjugate were added to the tube with anti-Leu-2a and anti-Leu-3a monoclonal antibodies.
# After erythrocyte lysing with FACS lysing solution (Becton Dickinson, San Jose) the cells were analyzed on FACScan flow cytometer (Becton Dickinson, San Jose) with scatter gate set on lymphocyte fraction.
substance,measurement,setting,value
"Adenylyl (2'-5')adenylyl (2'-5')-9-(2,3-anhydro-β-D-ribofuranosyl) adenine disodium salt [(2'-5')A2 Ar-epoxy]",IgA,[1]; day 5 post-op.,2.07 g/L
same,IgM,[1]; day 5 post-op.,0.75 g/L
same,IgG,[1]; day 5 post-op.,12.2 g/L
same,IgA,[1]; day 8 post-op.,2.5 g/L
same,IgM,[1]; day 8 post-op.,0.86 g/L
same,IgG,[1]; day 8 post-op.,12.75 g/L
same,DNA synthesis at [^3 H]-thymidine [incorporated counts/min.],"[2]; 5 × 10^-6 M, control 22,296","16,399 counts/min."
same,"inhibition of lymphocyte blast-transformation, in words","[2]; Con A, T-lymphocytes",suppresses the T-lymphocyte division to a greater extent
same,DNA synthesis at [^3 H]-thymidine [incorporated counts/min.],"[2]; Table 4, 1 × 10^-5 M, control 5,428","4,172 counts/min."
same,DNA synthesis at [^3 H]-thymidine [incorporated counts/min.],"[2]; Table 4, 5 × 10^-6 M, control 5,428","1,733 counts/min."
same,DNA synthesis at [^3 H]-thymidine [incorporated counts/min.],"[2]; Table 4, 5 × 10^-7 M, control 5,428","3,865 counts/min."
same,DNA synthesis at [^3 H]-thymidine [incorporated counts/min.],"[2]; Table 4, 5 × 10^-8 M, control 5,428","5,383 counts/min."
same,DNA synthesis at [^3 H]-thymidine [incorporated counts/min.],"[2]; Table 4, 5 × 10^-9 M, control 5,428","1,599 counts/min."
same,DNA synthesis at [^3 H]-thymidine [incorporated counts/min.],"[2]; Table 4, 5 × 10^-10 M, control 5,428",777 counts/min.
same,DNA synthesis at [^3 H]-thymidine [incorporated counts/min.],"[2]; Table 4, 5 × 10^-11 M, control 5,428","5,271 counts/min."
same,DNA synthesis at [^3 H]-thymidine [incorporated counts/min.],"[2]; Table 5, 1 × 10^-5 M, control 5,108","2,960 counts/min."
same,DNA synthesis at [^3 H]-thymidine [incorporated counts/min.],"[2]; Table 5, 5 × 10^-6 M, control 5,108","4,732 counts/min."
same,DNA synthesis at [^3 H]-thymidine [incorporated counts/min.],"[2]; Table 5, 5 × 10^-7 M, control 5,108","2,237 counts/min."
same,DNA synthesis at [^3 H]-thymidine [incorporated counts/min.],"[2]; Table 5, 5 × 10^-8 M, control 5,108","1,355 counts/min."
same,DNA synthesis at [^3 H]-thymidine [incorporated counts/min.],"[2]; Table 5, 5 × 10^-9 M, control 5,108","6,915 counts/min."
same,DNA synthesis at [^3 H]-thymidine [incorporated counts/min.],"[2]; Table 5, 5 × 10^-10 M, control 5,108","1,425 counts/min."
same,DNA synthesis at [^3 H]-thymidine [incorporated counts/min.],"[3]; 5 × 10^-6 M, control 27,133","21,464 counts/min."
same,"inhibition of lymphocyte blast-transformation, in words","[3]; LPS, β-lymphocytes",weaker effect of the division of β-lymphocytes
same,DNA synthesis at [^3 H]-thymidine [incorporated counts/min.],"[3]; Table 4, 5 × 10^-6 M, control 10,766","7,665 counts/min."
same,DNA synthesis at [^3 H]-thymidine [incorporated counts/min.],"[3]; Table 4, 5 × 10^-7 M, control 10,766","6,018 counts/min."
same,DNA synthesis at [^3 H]-thymidine [incorporated counts/min.],"[3]; Table 4, 5 × 10^-8 M, control 10,766","4,767 counts/min."
same,DNA synthesis at [^3 H]-thymidine [incorporated counts/min.],"[3]; Table 4, 5 × 10^-9 M, control 10,766","7,348 counts/min."
same,DNA synthesis at [^3 H]-thymidine [incorporated counts/min.],"[3]; Table 4, 5 × 10^-10 M, control 10,766",672 counts/min.
same,DNA synthesis at [^3 H]-thymidine [incorporated counts/min.],"[3]; Table 5, 5 × 10^-6 M, control 5,513",131 counts/min.
same,DNA synthesis at [^3 H]-thymidine [incorporated counts/min.],"[3]; Table 5, 5 × 10^-7 M, control 5,513",292 counts/min.
same,DNA synthesis at [^3 H]-thymidine [incorporated counts/min.],"[3]; Table 5, 5 × 10^-8 M, control 5,513",655 counts/min.
same,DNA synthesis at [^3 H]-thymidine [incorporated counts/min.],"[3]; Table 5, 5 × 10^-9 M, control 5,513","3,342 counts/min."
same,DNA synthesis at [^3 H]-thymidine [incorporated counts/min.],"[3]; Table 5, 5 × 10^-10 M, control 5,513","1,213 counts/min."
same,retained level of T-helper and T-killer cells relative to normal value,[4],30%
same,T-helpers,"[5]; single IV 25 μg/kg, day 0 (baseline)",16%
same,T-helpers,"[5]; single IV 25 μg/kg, day 1",20%
same,T-helpers,"[5]; single IV 25 μg/kg, day 2",10%
same,T-helpers,"[5]; single IV 25 μg/kg, day 4",4%
same,T-helpers,"[5]; single IV 25 μg/kg, day 8",5.3%
same,T-helpers,"[5]; single IV 25 μg/kg, day 12",7%
same,T-helpers,"[5]; single IV 25 μg/kg, day 21",23%
same,T-helpers,"[5]; single IV 50 μg/kg, day 0 (baseline)",30%
same,T-helpers,"[5]; single IV 50 μg/kg, day 1",29%
same,T-helpers,"[5]; single IV 50 μg/kg, day 2",15%
same,T-helpers,"[5]; single IV 50 μg/kg, day 4",1.2%
same,T-helpers,"[5]; single IV 50 μg/kg, day 8",5.0%
same,T-helpers,"[5]; single IV 50 μg/kg, day 12",7.0%
same,T-helpers,"[5]; single IV 50 μg/kg, day 21",30.6%
